# Entries after “also recorded” stand apart in the source; their conditions may differ. Like-named read-outs stand apart in the source and are kept apart here.
# Experiments:
# CI-M6PR = CI-M6PR (Homo sapiens, UniProt P11717); experiment: Human CI-M6PR binding assay (ELISA); design: purchased R&D 6418-GR-050
# Method: Nunc black solid bottom MaxiSorp plates were allowed to incubate overnight at 4° C. coated with 1 μg/mL of recombinant human CI-M6PR protein (R&D, 6418-GR-050) in 50 μL PBS. The next day, coating was decanted and plates were washed 3× with PBS. Wells were blocked with 350 μL of 3% BSA-PBS for 1 hour at room temperature. […] 50 μL of diluted conjugates were added to the plate and allowed to incubate at room temperature for 2 hours. After incubation, solutions in plate were decanted and washed with 350 μL of 0.05% PBS-Tween20 three times, drying the plate each wash on a clean paper towel. 50 μL of peroxidase AffiniPure Mouse Anti-Human IgG (Jackson Immuno, 209-035-088) diluted in 3% BSA-PBS to […] was added to the plate and allowed to incubate for 1 hour at room temperature in the dark. After incubation, solutions in plate were decanted and washed with 350 μL of 0.05% PBS-Tween20 3 times, drying the plate each wash on a clean paper towel. […] 50 μL of QuantaBlu solution was added to wells and allowed to incubate for 5-10 minutes at room temperature. After incubation, plates were read on a Perkin Elmer EnVision using photometric 340 and Umbelliferone 460 filter sets for excitation and emission, respectively. Data analysis and non-linear curve-fitting was performed using GraphPad Prism.
# Jurkat cells = experiment: Uptake of IgE-Alexa488 target by omalizumab conjugates in Jurkat cells; format: cell-based; conditions: for relative cellular uptake activity of IgE-Alexa488, omalizumab conjugates of Table 15A / relative cellular uptake activity of IgE-Alexa488, omalizumab conjugates of Table 15B: 1 hour; for relative cellular uptake activity of IgE-Alexa488, omalizumab conjugates of Table 15A: FIGS. 15-17; for relative cellular uptake activity of IgE-Alexa488, omalizumab conjugates of Table 15B: FIGS. 18-21
# Method: The omalizumab conjugates of Example 142 were bound to IgE-Alexa488 (prepared according to Example 144), as follows: equal molar ratios of omalizumab (anti-IgE) conjugate and IgE-Alexa488 were added in tissue culture media for 30 minutes at room temperature. The resulting anti-IgE conjugate:IgE antibody-Alexa488 compositions were added to Jurkat cells (100 k cells/50 ul per well, n=2), and Alexa488 fluorescence levels in the cells were measured at 1 hour by flow cytometry. As the fluorescently labelled target (IgE antibody) accumulates in cells, the fluorescence presents a way to measure total intracellular uptake by cells over time.
# [1] = molecular target: T1, M6PR (Domains I-9, R&D Systems) (Homo sapiens, UniProt P11717); experiment: General M6PR binding assay (fluorescence polarization); conditions: Table 16F, unconjugated compounds, 100 nM M6PR, 1 nM probe, 2 hr incubation
# T1 construct: with 100 nM M6PR (Domains I-9, R&D Systems) and 1 nM probe; purchased R&D Systems
# Method: M6PR binding was measured in black 96-well plates using a fluorescence polarization assay. A fluorescent probe consisting of a reference M6Pn ligand linked to Cy5 was synthesized. Test compounds were resuspended in DMSO and 3-fold serial dilutions were made at 100× final concentrations. Binding reactions were conducted in 100 μl final volume in 20 mM HEPES (pH 7.5) 100 mM NaCl 0.015% Tween-20 1% DMSO with 100 nM M6PR (Domains I-9, R&D Systems) and 1 nM probe. Fluorescence polarization was measured using Xex=620 nm, λem=688 nm on an Envision plate reader (Perkin Elmer) after 2 hr incubation time. Dose responses were conducted in duplicate and normalized to the response with DMSO (high) and 1 μM reference compound (low) on each plate. IC50 values were determined by fitting to 4-parameter curves in GraphPad Prism.
# [2] = Table 16D, conjugate, m average loading DAR 2, read-out: EC50 in M6PR binding assay for conjugates of compounds of varying multivalency
# T1 sequence (P11717 41-1365 limits assumed): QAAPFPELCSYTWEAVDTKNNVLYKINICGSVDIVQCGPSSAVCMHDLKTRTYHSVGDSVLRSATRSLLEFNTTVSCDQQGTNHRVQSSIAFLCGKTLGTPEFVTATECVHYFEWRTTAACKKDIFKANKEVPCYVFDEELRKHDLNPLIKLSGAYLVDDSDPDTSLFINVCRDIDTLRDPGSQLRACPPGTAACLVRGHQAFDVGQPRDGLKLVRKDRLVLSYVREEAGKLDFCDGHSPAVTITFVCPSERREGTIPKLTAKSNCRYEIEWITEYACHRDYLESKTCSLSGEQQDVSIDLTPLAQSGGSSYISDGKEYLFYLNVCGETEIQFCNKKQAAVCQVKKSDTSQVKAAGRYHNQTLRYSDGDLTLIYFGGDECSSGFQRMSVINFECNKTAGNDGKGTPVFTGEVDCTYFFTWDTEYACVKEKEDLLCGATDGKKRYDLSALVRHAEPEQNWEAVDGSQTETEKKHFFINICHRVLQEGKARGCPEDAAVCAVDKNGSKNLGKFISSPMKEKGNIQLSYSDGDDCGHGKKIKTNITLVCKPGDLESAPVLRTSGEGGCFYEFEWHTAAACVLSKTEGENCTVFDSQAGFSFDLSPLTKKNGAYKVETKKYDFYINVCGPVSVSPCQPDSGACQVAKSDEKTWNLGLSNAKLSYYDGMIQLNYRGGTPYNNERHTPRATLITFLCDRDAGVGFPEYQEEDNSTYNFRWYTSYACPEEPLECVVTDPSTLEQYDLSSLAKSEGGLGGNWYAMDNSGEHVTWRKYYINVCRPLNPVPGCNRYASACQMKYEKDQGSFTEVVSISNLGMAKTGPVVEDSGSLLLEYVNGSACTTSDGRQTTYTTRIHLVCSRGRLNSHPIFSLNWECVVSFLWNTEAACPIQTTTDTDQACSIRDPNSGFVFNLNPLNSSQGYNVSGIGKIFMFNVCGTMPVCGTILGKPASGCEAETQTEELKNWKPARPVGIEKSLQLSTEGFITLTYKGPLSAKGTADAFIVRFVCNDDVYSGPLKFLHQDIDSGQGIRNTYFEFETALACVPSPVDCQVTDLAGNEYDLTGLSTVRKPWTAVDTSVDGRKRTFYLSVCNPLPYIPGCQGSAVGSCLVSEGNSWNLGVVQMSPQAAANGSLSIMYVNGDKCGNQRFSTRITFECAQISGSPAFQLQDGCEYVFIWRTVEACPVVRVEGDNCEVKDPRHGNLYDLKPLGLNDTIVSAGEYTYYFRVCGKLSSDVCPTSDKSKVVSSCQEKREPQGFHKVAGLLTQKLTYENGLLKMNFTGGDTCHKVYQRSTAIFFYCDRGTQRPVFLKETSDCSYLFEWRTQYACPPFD
# CI-M6PR, sequence (P11717 41-1365 limits assumed): as above
smiles,measurement,setting,value
Cc1cc(NC(=O)NCCCCc2cn(CCOCCOCCOCCOCCC(=O)Oc3c(F)c(F)c(F)c(F)c3F)nn2)ccc1O[C@H]1O[C@H](CCP(=O)(O)O)[C@@H](O)[C@H](O)[C@@H]1O [545 (I-87)],EC50,"CI-M6PR; Table 16C, cetuximab (anti-EGFR) conjugate, average loading DAR 9.2, read-out: EC50 in M6PR binding assay",0.3 nM
O=C(CCOCCOCCOCCOCCn1cc(CCCCNC(=S)Nc2ccc(O[C@H]3O[C@H](CCS(=O)(=O)O)[C@@H](O)[C@H](O)[C@@H]3O)cc2)nn1)Oc1c(F)c(F)c(F)c(F)c1F [556 (1-104)],"relative cellular uptake activity of IgE-Alexa488, omalizumab conjugates of Table 15A",Jurkat cells,low activity
O=C(CCOCCOCCOCCN(CCOCCOCCOCCn1cc(CCCCNC(=S)Nc2ccc(O[C@H]3O[C@H](CCP(=O)(O)O)[C@@H](O)[C@H](O)[C@@H]3O)cc2)nn1)CCOCCOCCOCCn1cc(CCCCNC(=S)Nc2ccc(O[C@H]3O[C@H](CCP(=O)(O)O)[C@@H](O)[C@H](O)[C@@H]3O)cc2)nn1)Oc1c(F)c(F)c(F)c(F)c1F [704 (I-40)],EC50,CI-M6PR; [2],0.66 nM
same,EC50,"CI-M6PR; Table 16D, conjugate, m average loading DAR 7, read-out: EC50 in M6PR binding assay for conjugates of compounds of varying multivalency",0.2 nM
O=C(CCCn1cc(CCCCNC(=S)Nc2ccc(O[C@H]3O[C@H](CCP(=O)(O)O)[C@@H](O)[C@H](O)[C@@H]3O)cc2)nn1)N[C@@H](CCCCn1cc(CCCCNC(=S)Nc2ccc(O[C@H]3O[C@H](CCP(=O)(O)O)[C@@H](O)[C@H](O)[C@@H]3O)cc2)nn1)C(=O)N[C@@H](CCCCn1cc(CCCCNC(=S)Nc2ccc(O[C@H]3O[C@H](CCP(=O)(O)O)[C@@H](O)[C@H](O)[C@@H]3O)cc2)nn1)C(=O)N[C@@H](CCCCn1cc(CCCCNC(=S)Nc2ccc(O[C@H]3O[C@H](CCP(=O)(O)O)[C@@H](O)[C@H](O)[C@@H]3O)cc2)nn1)C(=O)NCCOCCOCCOCCOCCC(=O)Oc1c(F)c(F)c(F)c(F)c1F [763 (I-52)],EC50,CI-M6PR; [2],0.3 nM
C#CCCCCNC(=O)Nc1ccc(O[C@H]2O[C@H](CCP(=O)(O)O)[C@@H](O)[C@H](O)[C@@H]2O)cc1 [Compound 38C],IC50,[1],100 to 500 nM
O=C(NCCCCc1cn(CCOCCOCCOCCOCCC(=O)Oc2c(F)c(F)c(F)c(F)c2F)nn1)Nc1ccc(S[C@H]2O[C@H](CCP(=O)(O)O)[C@@H](O)[C@H](O)[C@@H]2O)cc1 [Compound 552],"relative cellular uptake activity of IgE-Alexa488, omalizumab conjugates of Table 15B",Jurkat cells,comparable activity to an 0-glycoside (520 (I-7) with m=8); also recorded: more activity when at m=6 loading versus m=4 loading
same,"relative cellular uptake activity of IgE-Alexa488, omalizumab conjugates of Table 19","Jurkat cells; FIG. 23, entire dose response range",comparable by less activity that the conjugate of α-O-glycoside (529)
O=C(NCCCCc1cn(CCOCCOCCOCCOCCC(=O)Oc2c(F)c(F)cc(F)c2F)nn1)Nc1ccc(O[C@H]2O[C@H](CCP(=O)(O)O)[C@@H](O)[C@H](O)[C@@H]2O)cc1 [Compound 558],"relative cellular uptake activity of IgE-Alexa488, omalizumab conjugates of Table 15A",Jurkat cells,"active in this assay, although less active in comparison to the corresponding analog containing a phosphonate hydrophilic head group (529 (I-38))"
O=C(CCOCCOCCOCCOCCn1cc(CCCCNC(=S)Nc2ccc(O[C@H]3O[C@H](CC(C(=O)O)C(=O)O)[C@@H](O)[C@H](O)[C@@H]3O)cc2)nn1)Oc1c(F)c(F)c(F)c(F)c1F [Compound 559],EC50,"CI-M6PR; Table 16E, conjugate, m average DAR 9, read-out: EC50 in M6PR binding assay for conjugates of monovalent compounds of varying linker length and loading",3.36 nM
CO[C@H]1O[C@H](COCCCCCc2cn(CCOCCOCCOCCOCCC(=O)Oc3c(F)c(F)c(F)c(F)c3F)nn2)[C@@H](O)[C@H](O)[C@@H]1O[C@H]1O[C@H](CCP(=O)(O)O)[C@@H](O)[C@H](O)[C@@H]1O [Compound 659],"relative cellular uptake activity of IgE-Alexa488, omalizumab conjugates of Table 15B",Jurkat cells,potent and comparable activity to conjugate of a conjugate of compound 520 (I-7)
CO[C@H]1OC(c2cn(CCOCCOCCOCCOCCOCCOCCC(=O)Oc3c(F)c(F)c(F)c(F)c3F)nn2)[C@@H](O)[C@H](O)[C@@H]1O[C@H]1O[C@H](CCP(=O)(O)O)[C@@H](O)[C@H](O)[C@@H]1O (stereo partly drawn) [Compound 660],"relative cellular uptake activity of IgE-Alexa488, omalizumab conjugates of Table 15B",Jurkat cells,potent and comparable activity to conjugate of a conjugate of compound 520 (I-7)
O=C(CCOCCOCCOCCOCCOCCOCCOCCOCc1cn([C@H]2O[C@H](CCP(=O)(O)O)[C@@H](O)[C@H](O)[C@@H]2O)nn1)ON1C(=O)CCC1=O [Compound 664],"relative cellular uptake activity of IgE-Alexa488, omalizumab conjugates of Table 15B",Jurkat cells,minimal activity
O=C(NCCCCc1cn(CCOCCOCCOCCOCCC(=O)Oc2c(F)c(F)c(F)c(F)c2F)nn1)Nc1ccc(O[C@H]2C[C@H](CCP(=O)(O)O)[C@@H](O)[C@H](O)[C@@H]2O)cc1 [Compound 665],"relative cellular uptake activity of IgE-Alexa488, omalizumab conjugates of Table 15A",Jurkat cells,low activity
O=C(CCOCCOCCOCCN(CCOCCOCCOCCn1cc(CCO[C@H]2O[C@H](CCP(=O)(O)O)[C@@H](O)[C@H](O)[C@@H]2O)nn1)CCOCCOCCOCCn1cc(CCO[C@H]2O[C@H](CCP(=O)(O)O)[C@@H](O)[C@H](O)[C@@H]2O)nn1)Oc1c(F)c(F)c(F)c(F)c1F [Compound 716],"relative cellular uptake activity of IgE-Alexa488, omalizumab conjugates of Table 15A",Jurkat cells,inferior uptake to 520 (I-7) with m=8
CC(=O)N[C@@H](CCCCn1cc(CCCCNC(=O)Nc2ccc(O[C@H]3O[C@H](CCP(=O)(O)O)[C@@H](O)[C@H](O)[C@@H]3O)cc2)nn1)C(=O)N[C@@H](CCCCn1cc(CCCCNC(=O)Nc2ccc(O[C@H]3O[C@H](CCP(=O)(O)O)[C@@H](O)[C@H](O)[C@@H]3O)cc2)nn1)C(=O)NCCOCCOCCOCCOCCC(=O)O [Compound 769],IC50,[1],100 to 500 nM
CC(=O)N[C@@H](CCCCn1cc(CCCCNC(=O)Nc2ccc(O[C@H]3O[C@H](CCP(=O)(O)O)[C@@H](O)[C@H](O)[C@@H]3O)cc2)nn1)C(=O)N[C@@H](CCCCn1cc(CCCCNC(=O)Nc2ccc(O[C@H]3O[C@H](CCP(=O)(O)O)[C@@H](O)[C@H](O)[C@@H]3O)cc2)nn1)C(=O)NCCOCCOCCOCCOCCC(=O)N[C@@H](CCCCn1cc(CCCCNC(=O)Nc2ccc(O[C@H]3O[C@H](CCP(=O)(O)O)[C@@H](O)[C@H](O)[C@@H]3O)cc2)nn1)C(=O)N[C@@H](CCCCn1cc(CCCCNC(=O)Nc2ccc(O[C@H]3O[C@H](CCP(=O)(O)O)[C@@H](O)[C@H](O)[C@@H]3O)cc2)nn1)C(=O)NCCOCCOCCOCCOCCC(=O)O [Compound 770],IC50,[1],≤ 50 nM
CC(=O)N[C@@H](CCCCn1cc(CCCCNC(=O)Nc2ccc(O[C@H]3O[C@H](CCP(=O)(O)O)[C@@H](O)[C@H](O)[C@@H]3O)cc2)nn1)C(=O)NCCOCCOCCOCCOCCC(=O)O [Compound 771],IC50,[1],100 to 500 nM
O=C(O)CCOCCOCCOCCOCCNC(=O)[C@H](CCCCn1cc(CCCCNC(=O)Nc2ccc(O[C@H]3O[C@H](CCP(=O)(O)O)[C@@H](O)[C@H](O)[C@@H]3O)cc2)nn1)NC(=O)[C@H](CCCCn1cc(CCCCNC(=O)Nc2ccc(O[C@H]3O[C@H](CCP(=O)(O)O)[C@@H](O)[C@H](O)[C@@H]3O)cc2)nn1)NC(=O)[C@H](CCCCn1cc(CCCCNC(=O)Nc2ccc(O[C@H]3O[C@H](CCP(=O)(O)O)[C@@H](O)[C@H](O)[C@@H]3O)cc2)nn1)NC(=O)CCCn1cc(CCCCNC(=O)Nc2ccc(O[C@H]3O[C@H](CCP(=O)(O)O)[C@@H](O)[C@H](O)[C@@H]3O)cc2)nn1 [Compound 772],IC50,[1],50 to 100 nM
O=C(CCCn1cc(CCCCNC(=S)Nc2ccc(O[C@H]3O[C@H](CCP(=O)(O)O)[C@@H](O)[C@H](O)[C@@H]3O)cc2)nn1)N[C@@H](CCCCn1cc(CCCCNC(=S)Nc2ccc(O[C@H]3O[C@H](CCP(=O)(O)O)[C@@H](O)[C@H](O)[C@@H]3O)cc2)nn1)C(=O)N[C@@H](CCCCn1cc(CCCCNC(=S)Nc2ccc(O[C@H]3O[C@H](CCP(=O)(O)O)[C@@H](O)[C@H](O)[C@@H]3O)cc2)nn1)C(=O)N[C@@H](CCCCn1cc(CCCCNC(=S)Nc2ccc(O[C@H]3O[C@H](CCP(=O)(O)O)[C@@H](O)[C@H](O)[C@@H]3O)cc2)nn1)C(=O)NCCOCCOCCOCCOCCC(=O)Oc1c(F)c(F)c(F)c(F)c1F [Compound I-52],EC50,"CI-M6PR; Table 16B, antibody conjugate, average loading DAR 6, read-out: EC50 in M6PR binding assay",0.28 nM
"C#CCCCC(=O)Nc1ccc2cc(O[C@H]3O[C@H](CCP(=O)(O)O)[C@@H](O)[C@H](O)[C@@H]3O)ccc2c1 [Compound I-68, (2-((2R,3S,4S,5S,6R)-6-((6-(hex-5-ynamido)naphthalen-2-yl)oxy)-3,4,5-trihydroxytetrahydro-2H-pyran-2-yl)ethyl)phosphonic acid]",IC50,[1],100 to 500 nM
